Source: PMC8326471, “Synthesis and biological evaluation of new pyrazolebenzene-sulphonamides as potential anticancer agents and hCA I and II inhibitors” (Turkish Journal of Chemistry, 2021)

How the values were obtained:
[1] = tested on: gingival carcinoma (Ca9-22) cells; experiment: Cytotoxicity assay (MTT), Ca9-22; type: cell-based, human; settings: for CC50: Homo sapiens, Ca9-22, tumor cell line, 48 h, MTT; for times of potency compared to 5-FU, Ca9-22: cytotoxicity relative to 5-FU; for PSE2 times more potent than 5-FU: PSE2 relative to reference drug 5-FU
Procedure: (§1) The cytotoxicity of the compounds 4a - 4j were assayed towards human tumor cell lines [gingival carcinoma (Ca9–22), oral squamous cell carcinoma (HSC-2)] and human normal oral cells [gingival fibroblasts (HGF), and periodontal ligament fibroblasts (HPLF)] as described [42, 54 – 56]. In brief, all cells were cultured in Dulbecco’s modified eagle’s medium (DMEM) supplemented with 10% fetal bovine serum (FBS). The following concentrations of the compounds in dimethylsulfoxide (DMSO) were added to the medium and incubated at 37 ° C for 48 h: 4a - 4j ([…]), melphalan (3.12, 6.25, 12.5, 25. 50, 100, 200 and […]) and 5-FU ([…]). The media that contained the same concentration of DMSO ([…], 0.03125, 0.0625, 0.125, 0.25, 0.5 or 1%) were used as controls since DMSO above 0.25% is cytotoxic. The viable cell numbers were determined by the 3-(4,5-dimethylthiazol-2-yl)-2,5-diphenyltetrazolium bromide (MTT) assay. The CC50 values were determined from dose-response curves.
(§2) Cytotoxicity’s of the compounds 4a - 4j were evaluated towards Ca9–22, HSC-2, HSC-3, and HSC-4 human oral squamous cell carcinoma cell lines as tumor cell lines and HGF, HPLF, and HPC human normal oral cells as nontumor cells (Table 1) according to the procedure in the literature [42, 54 – 56]. 5-Fluorouracil (5-FU) was used as a reference anticancer drug.

[2] = tested on: oral squamous cell carcinoma (HSC-2) cells; experiment: Cytotoxicity assay (MTT), HSC-2; type: cell-based, human; settings: for CC50: Homo sapiens, HSC-2, tumor cell line, 48 h, MTT; for times of potency compared to 5-FU, HSC-2: cytotoxicity relative to 5-FU
Procedure: as §1, §2

[3] = tested on: HSC-3 oral squamous cell carcinoma cells; experiment: Cytotoxicity assay (MTT), HSC-3; type: cell-based; settings: Homo sapiens, tumor cell line, 48 h
Procedure: as §1, §2

[4] = tested on: HSC-4 oral squamous cell carcinoma cells; experiment: Cytotoxicity assay (MTT), HSC-4; type: cell-based; settings: Homo sapiens, tumor cell line, 48 h
Procedure: as §1, §2

[5] = Cytotoxicity assay (MTT), HGF normal cells; type: cell-based; settings: human, HGF gingival fibroblasts (normal oral cells), non-tumor cells
Procedure: as §1, §2

[6] = Cytotoxicity assay (MTT), HPLF normal cells; type: cell-based; settings: human, HPLF periodontal ligament fibroblasts (normal oral cells), non-tumor cells
Procedure: as §1, §2

[7] = Cytotoxicity assay (MTT), HPC normal cells; type: cell-based; settings: human, HPC normal oral cells, non-tumor cells
Procedure: as §1, §2

[8] = tested on: human oral squamous cell carcinoma cell lines (Ca9-22, HSC-2, HSC-3, HSC-4); experiment: Cytotoxicity assay, all tumor cell lines (mean, TS1, PSE1); type: cell-based; settings: mean of Ca9-22, HSC-2, HSC-3, HSC-4, read-out: Tumor cell lines CC50 mean (B)
Procedure: as §1, §2
The tumor selectivity (TS1 and TS2) of each compound was calculated as described in previously reported literature procedures and these figures are presented in Table 1. Based on the TS1 values, 4f and 4g which have 2,5 and 2,4-dimethoxy substituents had the highest TS1 values in a series with 22.4 and 22.2, respectively. On the other hand, the 3,4,5-trimethoxy substituted compound 4i (TS1: 19.6) had the […] TS1 value. […] As expected, they were in accordance with the literature findings [16 – 18]. The second calculation (TS2) considered the differences of sensitivity between the malignant (Ca9–22) and non-malignant (HGF) cells derived from the same tissue (gingiva). According to TS2 values obtained, 4i (3,4,5-trimethoxy) had the highest TS2 value of 43.
The desired properties for a lead compound are being both markedly cytotoxic and selectively toxic for tumors. PSE1 reflects general cytotoxicity and selectivity potency of the compound towards all cells used, whereas PSE2 seems more specified since it was considered for the same origin cells. When the compounds tested towards OSCC lines were considered in terms of PSE2 values of the compounds. The best poly-methoxylated compounds were 4i (with 3,4,5-trimethoxy, PSE2 = 461.5) ˃ 4f (with 2,5-dimethoxy, PSE2 = 425.1) ˃ 4g (with 2,4-dimethoxy, PSE2 = 405.4) while the best mono-methoxylated derivative was 4b (with 4-methoxy, PSE2 = 205).

[9] = Cytotoxicity assay, all non-tumor cells (mean); type: cell-based; settings: human, normal oral cells HGF, HPLF and HPC (mean of the three), read-out: Non-tumor cell lines CC50 mean (D)
Procedure: as §1, §2

hCA I = hCA I (Homo sapiens, UniProt P00915); experiment: Carbonic anhydrase enzyme assay (esterase activity), hCA I; type: biochemical; settings: for Ki: Lineweaver-Burk plot; for IC50: esterase activity, p-nitrophenyl acetate
Excerpt: (§3) Human CA isoforms (hCAI and hCAII) were purified by the sepharose - 4B – L - tyrosine sulfanilamide affinity segregation method as reported. […] Inhibitory effects of the compounds were investigated by measuring the esterase activity according to Verpoorte et al. as described in previous studies [61 – 63].
(§4) Vmax, maximal velocity; VImax, maximal velocity of inhibitor; I, inhibitor; Ki, the inhibitor constant.

hCA II = hCA II (Homo sapiens, UniProt P00918); experiment: Carbonic anhydrase enzyme assay (esterase activity), hCA II; type: biochemical; settings: for Ki: Lineweaver-Burk plot; for IC50: esterase activity, p-nitrophenyl acetate
Excerpt: as §3, §4

hCA I, sequence (P00915 whole entry, canonical isoform): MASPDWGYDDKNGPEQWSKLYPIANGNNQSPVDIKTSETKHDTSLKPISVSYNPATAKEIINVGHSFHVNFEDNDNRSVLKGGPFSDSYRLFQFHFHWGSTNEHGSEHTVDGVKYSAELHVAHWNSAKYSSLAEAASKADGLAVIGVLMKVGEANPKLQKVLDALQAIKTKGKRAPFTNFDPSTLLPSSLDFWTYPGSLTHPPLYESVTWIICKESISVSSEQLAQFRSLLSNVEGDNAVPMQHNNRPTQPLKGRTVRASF

| SMILES | CC50 [1] [µM] | times of potency compared to 5-FU, Ca9-22 [1] | CC50 [2] [µM] | times of potency compared to 5-FU, HSC-2 [2] | CC50 [3] [µM] | CC50 [4] [µM] | CC50 at 48 h [5] [µM] | CC50 at 48 h [6] [µM] | CC50 at 48 h [7] [µM] | CC50 [8] [µM] | CC50 at 48 h [9] [µM] | Ki (hCA I) [µM] | IC50 (hCA I) [µM] | Ki (hCA II) [µM] | IC50 (hCA II) [µM] | melting point [°C] | PSE2 times more potent than 5-FU [1] |
| --- | --- | --- | --- | --- | --- | --- | --- | --- | --- | --- | --- | --- | --- | --- | --- | --- | --- |
| NS(=O)(=O)c1ccc(N2N=C(c3ccccc3)CC2c2ccc3c(c2)OCO3)cc1 (stereo not drawn) [4a, 4-[5-(1,3-Benzodioxol-5-yl)-3-phenyl-4,5-dihydro-1H-pyrazol-1 yl]benzenesulphonamide] | 17.1 | 1.3 | 26.1 | 10 | 20.8 | 26.1 | 56.3 | 37.6 | 63.2 | 22.5 | 52.4 | 59.8 ± 3 | 30.1 | 8.9 ± 2.3 | 10.7 | 196 to 198 | – |
| COc1ccc(C2=NN(c3ccc(S(N)(=O)=O)cc3)C(c3ccc4c(c3)OCO4)C2)cc1 (stereo not drawn) [4b, 4-[5-(1,3-Benzodioxol-5-yl)-3-(4-methoxyphenyl)-4,5-dihydro-1H-pyrazol-1-yl]benzenesulphonamide] | 14 | 1.6 | 18 | 14.5 | 16.2 | 18.2 | 400 | 400 | 98.7 | 16.6 | 300 | 31.9 ± 1.9 | 11.3 | 11.5 ± 4.6 | 16.3 | 171 to 173 | – |
| COc1cccc(C2=NN(c3ccc(S(N)(=O)=O)cc3)C(c3ccc4c(c3)OCO4)C2)c1 (stereo not drawn) [4c, 4-[5-(1,3-Benzodioxol-5-yl)-3-(3-methoxyphenyl)-4,5-dihydro-1H-pyrazol-1-yl]benzenesulphonamide] | 19.5 | – | 18.3 | 14.3 | 13.9 | 18 | 38.2 | 178 | 140 | 17.4 | 119 | 21.5 ± 1.5 | 6.6 | 6.9 ± 1.5 | 9.2 | 184 to 186 | – |
| COc1ccccc1C1=NN(c2ccc(S(N)(=O)=O)cc2)C(c2ccc3c(c2)OCO3)C1 (stereo not drawn) [4d, 4-[5-(1,3-Benzodioxol-5-yl)-3-(2-methoxyphenyl)-4,5-dihydro-1H-pyrazol-1-yl]benzenesulphonamide] | 13.8 | 1.6 | 17.1 | 15.3 | 12.4 | 14.9 | 36.9 | 39.7 | 37 | 14.6 | 37.8 | 28.5 ± 1.6 | 12.8 | 8.9 ± 1.9 | 10.7 | 183 to 185 | – |
| COc1ccc(C2=NN(c3ccc(S(N)(=O)=O)cc3)C(c3ccc4c(c3)OCO4)C2)cc1OC (stereo not drawn) [4e, 4-[5-(1,3-Benzodioxol-5-yl)-3-(3,4-dimethoxyphenyl)-4,5-dihydro-1H-pyrazol-1-yl]benzenesulphonamide] | – | – | 400 | – | 61 | 400 | 400 | 400 | 400 | 227 | 400 | 25.5 ± 1.6 | 10.2 | 9.3 ± 0.6 | 15.2 | 243 to 245 | – |
| COc1ccc(OC)c(C2=NN(c3ccc(S(N)(=O)=O)cc3)C(c3ccc4c(c3)OCO4)C2)c1 (stereo not drawn) [4f, 4-[5-(1,3-Benzodioxol-5-yl)-3-(2,5-dimethoxyphenyl)-4,5-dihydro-1H-pyrazol-1-yl]benzenesulphonamide] | 9.7 | 2.3 | 15.7 | 16.6 | 11.5 | 12 | 400 | 276 | 147 | 12.2 | 274 | 27.8 ± 10.1 | 14 | 12.3 ± 2.8 | 16.3 | 144 to 146 | 2.1 |
| COc1ccc(C2=NN(c3ccc(S(N)(=O)=O)cc3)C(c3ccc4c(c3)OCO4)C2)c(OC)c1 (stereo not drawn) [4g, 4-[5-(1,3-Benzodioxol-5-yl)-3-(2,4-dimethoxyphenyl)-4,5-dihydro-1H-pyrazol-1-yl]benzenesulphonamide] | 9.9 | 2.2 | 13.5 | 19.3 | 9.8 | 12.7 | 400 | 234 | 131 | 11.5 | 255 | 12.7 ± 1.7 | 6.7 | 7.8 ± 2.2 | 11.3 | 134 to 136 | 2.0 |
| COc1cc(OC)c(C2=NN(c3ccc(S(N)(=O)=O)cc3)C(c3ccc4c(c3)OCO4)C2)cc1OC (stereo not drawn) [4h, 4-[5-(1,3-Benzodioxol-5-yl)-3-(2,4,5-trimethoxyphenyl)-4,5-dihydro-1H-pyrazol-1-yl]benzenesulphonamide] | 400 | – | 400 | – | 21.3 | 21.8 | 400 | 400 | 400 | 211 | 400 | 49.6 ± 1.9 | 13.8 | 9.3 ± 1.6 | 14.3 | 191 to 193 | – |
| COc1cc(C2=NN(c3ccc(S(N)(=O)=O)cc3)C(c3ccc4c(c3)OCO4)C2)cc(OC)c1OC (stereo not drawn) [4i, 4-[5-(1,3-Benzodioxol-5-yl)-3-(3,4,5-trimethoxyphenyl)-4,5-dihydro-1H-pyrazol-1-yl]benzenesulphonamide] | 9.3 | 2.4 | 30.9 | 8.4 | 11.3 | 6.7 | 400 | 83.7 | 371 | 14.6 | 285 | 52.5 ± 1.8 | 29.7 | 24.1 ± 7.1 | 12.5 | 212 to 214 | 2.2 |
| O=c1[nH]cc(F)c(=O)[nH]1 [5-FU, 5-Fluorouracil, reference compound] | 22 | – | 261 | – | 7.8 | 12.5 | 1000 | 1000 | 958 | 75.8 | 986 | – | – | – | – | – | – |
